Counter-ions that a name gives are not always drawn.

This note sets out measurements from US10428044B2, “3-amino-1,5,6,7-tetrahydro-4H-indol-4-ones” (Bayer Pharma Aktiengesellschaft, priority 2014, dated 2019).

Sequence of (recombinant) catalytic domain of human Bub1 (amino acids 704-1085) (O43683 704-1085): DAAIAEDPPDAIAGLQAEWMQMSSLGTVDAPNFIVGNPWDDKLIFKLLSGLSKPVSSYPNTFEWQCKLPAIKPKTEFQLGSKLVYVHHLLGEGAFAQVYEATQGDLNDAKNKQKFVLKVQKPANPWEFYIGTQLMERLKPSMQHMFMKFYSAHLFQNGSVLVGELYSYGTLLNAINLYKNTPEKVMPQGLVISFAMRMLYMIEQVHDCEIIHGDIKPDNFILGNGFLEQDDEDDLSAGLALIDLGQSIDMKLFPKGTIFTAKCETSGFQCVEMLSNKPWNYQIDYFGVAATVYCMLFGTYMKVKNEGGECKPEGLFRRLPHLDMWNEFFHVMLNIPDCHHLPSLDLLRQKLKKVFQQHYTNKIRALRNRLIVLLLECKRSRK

The target in the test is (recombinant) catalytic domain of human Bub1 (amino acids 704-1085) (Homo sapiens (Human), UniProt O43683). Description: Bub1 kinase assay (TR-FRET). Type of test: biochemical. The note with it: ATP 10 μM final, peptide substrate 1 μM final, 60 min at 22° C., read-out: Biological Assay: Bub1 kinase assay median IC50. An outline of the steps:
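Readout was TR-FRET between a Eu-labeled antibody complex recognizing phosphoserine and streptavidin-XL665 on the biotinylated peptide, after EDTA stop and 1 h at 22° C. The kinase reaction ran for 60 min at 22° C. Values are means or medians of repeat tests, from 4-parameter fits normalized to enzyme-free and inhibitor-free controls.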
(TR-FRET usually uses a lanthanide donor and a delayed reading to cut background.)
Take `CCCn1c2c(c(Nc3ccccc3)c1-c1ccncc1)C(=O)CCC2` [Example 171, 3-(phenylamino)-1-propyl-2-(pyridin-4-yl)-1,5,6,7-tetrahydro-4H-indol-4-one]: the IC50 (commonly the concentration that inhibits the measured activity by half) is 14.4 nM.

In the case of `COC(=O)CCn1c2c(c(Nc3ccccc3)c1-c1ccncc1)C(=O)CCC2` [Example 172, methyl 3-[4-oxo-3-(phenylamino)-2-(pyridin-4-yl)-4,5,6,7-tetrahydro-1H-indol-1-yl]propanoate], the IC50 is 1050 nM.

Consider `O=C(O)CCn1c2c(c(Nc3ccccc3)c1-c1ccncc1)C(=O)CCC2` [Example 173, 3-[4-oxo-3-(phenylamino)-2-(pyridin-4-yl)-4,5,6,7-tetrahydro-1H-indol-1-yl]propanoic acid], for which the IC50 was determined as 474 nM.

In the case of `NC(=O)CCn1c2c(c(Nc3ccccc3)c1-c1ccncc1)C(=O)CCC2` [Example 174, 3-[4-oxo-3-(phenylamino)-2-(pyridin-4-yl)-4,5,6,7-tetrahydro-1H-indol-1-yl]propanamide], the IC50 stood at 220 nM.

Regarding `O=C1CCCc2c1c(Nc1ccccc1)c(-c1ccncc1)n2CCCO` [Example 175, 1-(3-hydroxypropyl)-3-(phenylamino)-2-(pyridin-4-yl)-1,5,6,7-tetrahydro-4H-indol-4-one], the 50% inhibitory concentration (IC50) was found to be 217 nM.

On to `CS(=O)(=O)CCn1c2c(c(Nc3ccccc3)c1-c1ccncc1)C(=O)CCC2` [Example 176, 1-[2-(methylsulfonyl)ethyl]-3-(phenylamino)-2-(pyridin-4-yl)-1,5,6,7-tetrahydro-4H-indol-4-one], for which the half-maximal inhibitory concentration (IC50) turned out to be 2040 nM.

For the compound `CCn1c2c(c(Nc3ccccc3)c1-c1ccncc1Cl)C(=O)CCC2` [Example 177, 2-(3-chloropyridin-4-yl)-1-ethyl-3-(phenylamino)-1,5,6,7-tetrahydro-4H-indol-4-one], the IC50 turned out to be 5670 nM.

As to `CC1CC(=O)c2c(Nc3ccccc3)c(-c3ccncc3)n(C)c2C1` (stereo not shown) [Example 178, 1,6-dimethyl-3-(phenylamino)-2-(pyridin-4-yl)-1,5,6,7-tetrahydro-4H-indol-4-one], the IC50 came out at 99.6 nM.

In the case of `Cn1c2c(c(Nc3ccccc3)c1-c1ccncc1)C(=O)CC(C)(C)C2` [Example 179, 1,6,6-trimethyl-3-(phenylamino)-2-(pyridin-4-yl)-1,5,6,7-tetrahydro-4H-indol-4-one], the IC50 came out at 162 nM.

As to `CC1(C)CC(=O)c2c(Nc3ccccc3)c(-c3ccncc3)n(CC(F)(F)F)c2C1` [Example 180, 6,6-dimethyl-3-(phenylamino)-2-(pyridin-4-yl)-1-(2,2,2-trifluoroethyl)-1,5,6,7-tetrahydro-4H-indol-4-one], the IC50 was 199 nM.

`CCn1c2c(c(Nc3ccccc3)c1-c1ccncc1)C(=O)CC(C)(C)C2` [Example 181, 1-ethyl-6,6-dimethyl-3-(phenylamino)-2-(pyridin-4-yl)-1,5,6,7-tetrahydro-4H-indol-4-one]: the IC50 stood at 32.7 nM.

In the case of `CCCn1c2c(c(Nc3ccccc3)c1-c1ccncc1)C(=O)CC(C)(C)C2` [Example 182, 6,6-dimethyl-3-(phenylamino)-1-propyl-2-(pyridin-4-yl)-1,5,6,7-tetrahydro-4H-indol-4-one], the concentration for half-maximal inhibition (IC50) was 68.9 nM.

On to `CC1(C)CC(=O)c2c(Nc3ccccc3)c(-c3ccncc3)n(CCO)c2C1` [Example 184, 1-(2-hydroxyethyl)-6,6-dimethyl-3-(phenylamino)-2-(pyridin-4-yl)-1,5,6,7-tetrahydro-4H-indol-4-one], for which the IC50 stood at 200 nM.

With `CC1(C)CC(=O)c2c(Nc3ccccc3)c(-c3ccncc3)n(CC(N)=O)c2C1` [Example 185, 2-[3-anilino-6,6-dimethyl-4-oxo-2-(pyridin-4-yl)-4,5,6,7-tetrahydro-1H-indol-1-yl]acetamide formic acid salt], the IC50 is 1300 nM.

In the case of `CC1(C)CC(=O)c2c(Nc3ccccc3)c(-c3ccncc3)n(Cc3ccccc3)c2C1` [Example 186, 1-benzyl-6,6-dimethyl-3-(phenylamino)-2-(pyridin-4-yl)-1,5,6,7-tetrahydro-4H-indol-4-one], the IC50 stood at 2940 nM.

In the case of `CCn1c2c(c(Nc3ccccc3)c1-c1ccnc(NC(C)=O)c1)C(=O)CC(C)(C)C2` [Example 187, N-{4-[1-ethyl-6,6-dimethyl-4-oxo-3-(phenylamino)-4,5,6,7-tetrahydro-1H-indol-2-yl]pyridin-2-yl}acetamide], the half-maximal inhibitory concentration (IC50) amounted to 52.3 nM.

Consider `CC1(C)CC(=O)c2c(Nc3ccccc3)c(-c3ccncc3)n(CC(F)F)c2C1` [Example 188, 1-(2,2-difluoroethyl)-6,6-dimethyl-3-(phenylamino)-2-(pyridin-4-yl)-1,5,6,7-tetrahydro-4H-indol-4-one], for which the concentration for half-maximal inhibition (IC50) came to 50.6 nM.

Regarding `CC(C)[n+]1ccc(-c2[nH]c3c(c2Nc2ccccc2)C(=O)CC(C)(C)C3)cc1` [Example 189, 4-[6,6-dimethyl-4-oxo-3-(phenylamino)-4,5,6,7-tetrahydro-1H-indol-2-yl]-1-(propan-2-yl)pyridinium iodide], the IC50 stood at 259 nM.

`CC1(C)CC(=O)c2c([nH]c(-c3cc[n+](CC(F)(F)F)cc3)c2Nc2ccccc2)C1` [Example 190, 4-[6,6-dimethyl-4-oxo-3-(phenylamino)-4,5,6,7-tetrahydro-1H-indol-2-yl]-1-(2,2,2-trifluoroethyl)pyridinium trifluoromethanesulfonate]: the 50% inhibitory concentration (IC50) came to 475 nM.

With `CC1(C)CC(=O)c2c([nH]c(-c3cc[n+](CCCO)cc3)c2Nc2ccccc2)C1` [Example 191, 4-[6,6-dimethyl-4-oxo-3-(phenylamino)-4,5,6,7-tetrahydro-1H-indol-2-yl]-1-(3-hydroxypropyl)pyridinium iodide], the concentration for half-maximal inhibition (IC50) turned out to be 326 nM.

On to `CC1(C)CC(=O)c2c([nH]c(-c3cc[n+](CC(F)F)cc3)c2Nc2ccccc2)C1` [Example 192, 4-[6,6-dimethyl-4-oxo-3-(phenylamino)-4,5,6,7-tetrahydro-1H-indol-2-yl]-1-(2,2-difluoroethyl)pyridinium trifluoromethanesulfonate], for which the IC50 is 1280 nM.

Consider `COC(=O)C[n+]1ccc(-c2[nH]c3c(c2Nc2ccccc2)C(=O)CC(C)(C)C3)cc1` [Example 193, 4-[6,6-dimethyl-4-oxo-3-(phenylamino)-4,5,6,7-tetrahydro-1H-indol-2-yl]-1-(2-methoxy-2-oxoethyl)pyridinium bromide], for which the IC50 is 921 nM.

Turning to `CC1(C)C/C(=N\O)c2c([nH]c(-c3ccncc3)c2Nc2ccccc2)C1` [Example 194, 4-(hydroxyimino)-6,6-dimethyl-N-phenyl-2-(pyridin-4-yl)-4,5,6,7-tetrahydro-1H-indol-3-amine], the IC50 turned out to be 42 nM.

Consider `CC(=O)O/N=C1\CC(C)(C)Cc2[nH]c(-c3ccncc3)c(Nc3ccccc3)c21` [Example 195, 1-({(E)-[6,6-dimethyl-3-(phenylamino)-2-(pyridin-4-yl)-1,5,6,7-tetrahydro-4H-indol-4-ylidene]amino}oxy)ethanone], for which the half-inhibitory concentration (IC50) worked out at 102 nM.

For the compound `O=C1CCCc2[nH]c(-c3ccncc3Br)c(Nc3ccccc3)c21` [Example 196, 2-(3-bromopyridin-4-yl)-3-(phenylamino)-1,5,6,7-tetrahydro-4H-indol-4-one], the half-maximal inhibitory concentration (IC50) amounted to 36.5 nM.

For `N#Cc1cnccc1-c1[nH]c2c(c1Nc1ccccc1)C(=O)CCC2` [Example 197, 4-[4-oxo-3-(phenylamino)-4,5,6,7-tetrahydro-1H-indol-2-yl]pyridine-3-carbonitrile], the half-inhibitory concentration (IC50) is more than 20000 nM.

As to `CC1(C)CC(=O)c2c([nH]c(-c3ccncc3C#N)c2Nc2cccc(F)c2)C1` [Example 198, 4-{3-[(3-fluorophenyl)amino]-6,6-dimethyl-4-oxo-4,5,6,7-tetrahydro-1H-indol-2-yl}pyridine-3-carbonitrile], the concentration for half-maximal inhibition (IC50) amounted to 10900 nM.

For `CC1(C)CC(=O)c2c([nH]c(-c3ccncc3Br)c2Nc2ccccc2)C1` [Example 199, 2-(3-bromopyridin-4-yl)-6,6-dimethyl-3-(phenylamino)-1,5,6,7-tetrahydro-4H-indol-4-one], the 50% inhibitory concentration (IC50) was 12 nM.

Turning to `CSc1cc(-c2[nH]c3c(c2Nc2ccccc2)C(=O)CC(C)(C)C3)ccn1` [Example 200, 6,6-dimethyl-2-[2-(methylsulfanyl)pyridin-4-yl]-3-(phenylamino)-1,5,6,7-tetrahydro-4H-indol-4-one], the half-maximal inhibitory concentration (IC50) is 610 nM.

As to `CSc1cnccc1-c1[nH]c2c(c1Nc1ccccc1)C(=O)CC(C)(C)C2` [Example 201, 6,6-dimethyl-2-[3-(methylsulfanyl)pyridin-4-yl]-3-(phenylamino)-1,5,6,7-tetrahydro-4H-indol-4-one], the IC50 is 47.4 nM.

On to `C[S+]([O-])c1cnccc1-c1[nH]c2c(c1Nc1ccccc1)C(=O)CC(C)(C)C2` (stereo not shown) [Example 202, {4-[6,6-dimethyl-4-oxo-3-(phenylamino)-4,5,6,7-tetrahydro-1H-indol-2-yl]pyridin-3-yl}(methyl)sulfoniumolate], for which the IC50 was determined as 1990 nM.

As to `CC1(C)CC(=O)c2c([nH]c(-c3ccnc(N)c3)c2Nc2cccc(Br)c2)C1` [Example 203, 2-(2-aminopyridin-4-yl)-3-[(3-bromophenyl)amino]-6,6-dimethyl-1,5,6,7-tetrahydro-4H-indol-4-one], the IC50 turned out to be 115 nM.

Turning to `CC1(C)CC(=O)c2c([nH]c(-c3ccnc(Nc4cnn(Cc5ccccc5)c4)c3)c2Nc2ccccc2)C1` [Example 204, 2-{2-[(1-benzyl-1H-pyrazol-4-yl)amino]pyridin-4-yl}-6,6-dimethyl-3-(phenylamino)-1,5,6,7-tetrahydro-4H-indol-4-one], the concentration for half-maximal inhibition (IC50) came to 42.6 nM.

Turning to `Cn1cc(Nc2cc(-c3[nH]c4c(c3Nc3ccccc3)C(=O)CC(C)(C)C4)ccn2)cn1` [Example 205, 6,6-dimethyl-2-{2-[(1-methyl-1H-pyrazol-4-yl)amino]pyridin-4-yl}-3-(phenylamino)-1,5,6,7-tetrahydro-4H-indol-4-one], the IC50 was found to be 22.9 nM.
